{
  "source": "paper PMC2011122",
  "about": "(British Journal of Cancer, 1982)",
  "key": {"[1]": {"experiment": "Polymorphic acetylation in humans", "assay_type": "in vivo", "conditions": "conclusion from urinary excretion in 10 phenotyped volunteers"}, "bovine adrenal cells": {"test_system": "bovine adrenal cells", "design": "method as in Coombes et al., 1980", "conditions": "bovine adrenal cells in culture, ref Coombes et al., 1980, cited from earlier work; for Glucocorticoid production, % of the resting levels: 10 ug/ml"}, "[2]": {"design": "method as in Coombes et al. (1980)", "conditions": "after AG, ref Coombes et al. (1980), cited from earlier work"}, "[3]": {"conditions": "cited from earlier work"}, "mammary carcinoma": {"test_system": "mammary carcinoma", "design": "method as in Smith et al., 1978", "conditions": "postmenopausal women; ref Smith et al., 1978; cited from earlier work"}, "[4]": {"conditions": "6 h urine after sulphadimidine"}, "[5]": {"design": "method as in Testa & Jenner, 1976", "conditions": "ref Testa & Jenner, 1976; cited from earlier work"}, "[6]": {"experiment": "24 h urinary excretion of AG and metabolites in volunteers given oral AG", "conditions": "oral AG 250 mg, 24 h urine, excreted as the named substance; for Percentage of the administered dose excreted in the urine during 24 h, mean, rapid (fast) acetylators: rapid acetylators of sulphadimidine (5 volunteers); for Percentage of the administered dose excreted in the urine during 24 h, mean, slow acetylators: slow acetylators of sulphadimidine (5 volunteers)"}, "[7]": {"design": "method as in Douglas & Nicholls, 1972", "conditions": "humans, urine; ref Douglas & Nicholls, 1972; cited from earlier work"}, "steroidogenesis": {"test_system": "steroidogenesis", "conditions": "no reference given; cited from earlier work"}, "[8]": {"design": "method as in Hoffman & Tagmann, 1954", "conditions": "ref Hoffman & Tagmann, 1954; cited from earlier work"}},
  "note": "Read-outs that look alike come from different tables or passages of the source.",
  "data": [
    {"smiles": "CCC1(c2ccc(N)cc2)CCC(=O)NC1=O", "note": "(stereo not shown) [AG, aminoglutethimide]", "values": [
      {"measurement": "Acetylation polymorphism in humans", "setting": "[1]", "value": "polymorphically acetylated"},
      {"measurement": "Glucocorticoid production, % of the resting levels", "setting": "bovine adrenal cells", "value": 833, "unit": "%"},
      {"measurement": "Plasma level at 0.5 h, mean, slow acetylators", "setting": "[2]; 4 slow acetylators", "value": 1140, "unit": "ng/mL"},
      {"measurement": "Plasma level at 0.5 h, mean, rapid acetylators", "setting": "[2]; 5 rapid acetylators", "value": 960, "unit": "ng/mL"},
      {"measurement": "Plasma level at 2 h, mean, rapid acetylators", "setting": "[2]; 5 rapid acetylators", "value": "0 to 60000", "unit": "ng/mL"},
      {"measurement": "Side effects in patients", "setting": "[3]; patients, ref Smith et al., 1978", "value": "skin rash and lethargy"},
      {"measurement": "Efficacy in the treatment of mammary carcinoma", "setting": "mammary carcinoma", "value": "effective agent"}
    ]},
    {"smiles": "CC(=O)Nc1ccc(S(=O)(=O)Nc2nc(C)cc(C)n2)cc1", "note": "[N-acetylsulphadimidine]", "values": [
      {"measurement": "Percentage of the excreted dose as N-acetylsulphadimidine, rapid acetylators", "setting": "[4]; rapid acetylators", "value": "89-96%"},
      {"measurement": "Percentage of the excreted dose as N-acetylsulphadimidine, slow acetylators", "setting": "[4]; slow acetylators", "value": "62-68%"}
    ]},
    {"smiles": "NNC(=O)c1ccncc1", "note": "[isoniazid]", "values": [
      {"measurement": "Acetylation polymorphism in humans", "setting": "[5]", "value": "polymor- phically acetylated"}
    ]},
    {"smiles": "CCC1(c2ccc(NC=O)cc2)CCC(=O)NC1=O", "note": "(stereo not shown) [N-formylAG, N-Formylaminoglutethimide]", "values": [
      {"measurement": "Percentage of the administered dose excreted in the urine during 24 h, mean, rapid (fast) acetylators", "setting": "[6]", "value": 0.465, "unit": "%"},
      {"measurement": "Percentage of the administered dose excreted in the urine during 24 h, mean, slow acetylators", "setting": "[6]", "value": 0.475, "unit": "%"}
    ]},
    {"smiles": "CCC1(c2ccc([N+](=O)[O-])cc2)CCC(=O)NC1=O", "note": "(stereo not shown) [nitroG, Nitroglutethimide]", "values": [
      {"measurement": "Percentage of the administered dose excreted in the urine during 24 h, mean, rapid (fast) acetylators", "setting": "[6]", "value": 0.047, "unit": "%"},
      {"measurement": "Percentage of the administered dose excreted in the urine during 24 h, mean, slow acetylators", "setting": "[6]", "value": 0.10, "unit": "%"}
    ]},
    {"smiles": "CCC1(c2ccc(NC(C)=O)cc2)CCC(=O)NC1=O", "note": "(stereo not shown) [N-acetylAG, N-Acetylaminoglutethimide]", "values": [
      {"measurement": "Glucocorticoid production, % of the resting levels", "setting": "bovine adrenal cells", "value": 58, "unit": "%"},
      {"measurement": "Inhibition of steroidogenesis (ability to reduce corticosteroid output)", "setting": "bovine adrenal cells; compared with AG", "value": "poor inhibitor"},
      {"measurement": "Plasma level at 8 h, mean, slow acetylators", "setting": "[2]; 4 slow acetylators", "value": "0 to 37000", "unit": "ng/mL"},
      {"measurement": "Percentage of the administered dose of AG accounted for as urinary metabolite", "setting": "[7]", "value": "4-25%"},
      {"measurement": "Percentage of the administered dose excreted in the urine during 24 h, mean, rapid (fast) acetylators", "setting": "[6]", "value": 8.8, "unit": "%"},
      {"measurement": "Percentage of the administered dose excreted in the urine during 24 h, mean, slow acetylators", "setting": "[6]", "value": 3.9, "unit": "%"}
    ]},
    {"smiles": "Nc1ccc(S(=O)(=O)c2ccc(N)cc2)cc1", "note": "[diaminodiphenylsulphone]", "values": [
      {"measurement": "Acetylation polymorphism in humans", "setting": "[5]", "value": "polymor- phically acetylated"}
    ]},
    {"smiles": "NNc1nncc2ccccc12", "note": "[hydralazine]", "values": [
      {"measurement": "Adverse side-effect induced", "setting": "[3]; preponderantly in slow acetylators, ref Perry et al., 1970", "value": "lupus erythematosus"}
    ]},
    {"smiles": "CCC1(c2ccccc2)CCC(=O)NC1=O", "note": "(stereo not shown) [glutethimide]", "values": [
      {"measurement": "Inhibitory effect on steroidogenesis", "setting": "steroidogenesis", "value": "little inhibitory effect"},
      {"measurement": "Hypnotic activity", "setting": "[8]", "value": "powerful hypnotic"}
    ]},
    {"smiles": "Cc1cc(C)nc(NS(=O)(=O)c2ccc(N)cc2)n1", "note": "[sulphamethazine]", "values": [
      {"measurement": "Acetylation polymorphism in humans", "setting": "[5]", "value": "polymor- phically acetylated"}
    ]}
  ]
}
